Measurements as given in patent publication US20260070945A1, “MACROCYCLIC IMMUNOMODULATORS” (Bristol-Myers Squibb Company, priority 2022, published 2026).
Where a SMILES comes first, the peptide text is derived from it. Bridges are numbered along the chain shown (N, C = ends). [ ]: non-standard residue; d: D form. The star is where a group is joined. Bip = N[C@@H](Cc1ccc(-c2ccccc2)cc1)C(=O)O; Phe(3-Me) = Cc1cccc(C[C@H](N)C(=O)O)c1; Cha = N[C@@H](CC1CCCCC1)C(=O)O; Carboxymethyl = O=C(O)C*; NMeA = CN[C@@H](C)C(=O)O; Orn = NCCC[C@H](N)C(=O)O; Aun = NCCCCCCCCCCC(=O)O; Dab = NCC[C@H](N)C(=O)O; AEEA = NCCOCCOCC(=O)O

Biological target: T1, PD-1/PD-L1 interaction (PE-labeled human PD-L1-Ig binding to Jurkat cell line over-expressing human PD-1) (Homo sapiens, UniProt Q15116)
T1 construct: expressed in transfected cells; host or cells: Jurkat
T1 sequence (Q15116 25-288): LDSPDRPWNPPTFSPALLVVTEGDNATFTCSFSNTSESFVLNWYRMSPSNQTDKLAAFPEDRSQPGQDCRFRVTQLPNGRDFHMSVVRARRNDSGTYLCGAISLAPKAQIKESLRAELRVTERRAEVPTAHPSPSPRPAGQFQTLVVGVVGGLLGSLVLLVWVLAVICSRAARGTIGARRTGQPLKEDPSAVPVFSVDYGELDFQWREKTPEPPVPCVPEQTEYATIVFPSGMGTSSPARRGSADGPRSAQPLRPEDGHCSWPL
Assay: Jurkat-PD-1 Cell Binding High-Content Screening Assay (CBA)
Conditions: Jurkat-hPD-1 cells, PE-labeled PD-L1-Ig 20 nM final; read-out: Jurkat HPD1 PDL1 IC50
Method in brief: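 Jurkat-hPD-1 cells (8×10^3/well) in DMEM with 10% fetal calf serum were preincubated with compound for 2 h at 37 °C. PE-labeled PD-L1-Ig was then added at 20 nM final for 1 h. Cells were fixed in paraformaldehyde with Hoechst 33342, washed and imaged by high-content imaging.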

Row | IC50 [µM] | SMILES
1 | 0.0253 | Cc1cccc(C[C@@H]2NC(=O)[C@H](CC(=O)O)NC(=O)[C@H](Cc3ccc(OCC(=O)O)cc3)NC(=O)[C@H]([C@@H](C)O)NC(=O)CSC[C@@H](C(=O)N[C@@H](CCN)C(=O)NCCOCCOCC(=O)NCCCCCCCCCCC(=O)O)NC(=O)[C@H](CCCN)NC(=O)[C@H](C(C)C)NC(=O)[C@H](CC3CCCCC3)NC(=O)[C@H](CC(N)=O)NC(=O)[C@@H](CC(C)C)NC(=O)[C@H](C)N(C)C(=O)[C@H](Cc3ccc(OCC(=O)O)cc3)NC(=O)[C@H](Cc3ccc(-c4ccccc4)cc3)NC(=O)[C@H](Cc3ccc(OCC(=O)O)cc3)NC2=O)c1 [Example 1363] ({CH2CO}-TY(Carboxymethyl)D[Phe(3-Me)]Y(Carboxymethyl)[Bip]Y(Carboxymethyl)[NMeA][dL]N[Cha]V[Orn]C[Dab][AEEA][Aun]-OH; thioether N-14)
2 | 0.0495 | Cc1cccc(C[C@@H]2NC(=O)[C@H](CC(=O)O)NC(=O)[C@H](Cc3ccc(OCC(=O)O)cc3)NC(=O)[C@H]([C@@H](C)O)NC(=O)CSC[C@@H](C(=O)N[C@@H](CCN)C(=O)NCCOCCOCC(=O)NCCCCCCCCCCC(=O)O)NC(=O)[C@H](CCC(=O)O)NC(=O)[C@H](C(C)C)NC(=O)[C@H](CC3CCCCC3)NC(=O)[C@H](CC(N)=O)NC(=O)[C@@H](CC(C)C)NC(=O)[C@H](C)N(C)C(=O)[C@H](Cc3ccc(OCC(=O)O)cc3)NC(=O)[C@H](Cc3ccc(-c4ccccc4)cc3)NC(=O)[C@H](Cc3ccc(OCC(=O)O)cc3)NC2=O)c1 [Example 1364] ({CH2CO}-TY(Carboxymethyl)D[Phe(3-Me)]Y(Carboxymethyl)[Bip]Y(Carboxymethyl)[NMeA][dL]N[Cha]VEC[Dab][AEEA][Aun]-OH; thioether N-14)
3 | 0.0597 | Cc1cccc(C[C@@H]2NC(=O)[C@H](CC(=O)O)NC(=O)[C@H](Cc3ccc(OCC(=O)O)cc3)NC(=O)[C@H]([C@@H](C)O)NC(=O)CSC[C@@H](C(=O)N[C@@H](CCCN)C(=O)NCCOCCOCC(=O)NCCCCCCCCCCC(=O)O)NC(=O)[C@H]([C@@H](C)O)NC(=O)[C@H](C(C)C)NC(=O)[C@H](CC3CCCCC3)NC(=O)[C@H](CC(N)=O)NC(=O)[C@@H](CC(C)C)NC(=O)[C@H](C)N(C)C(=O)[C@H](Cc3ccc(OCC(=O)O)cc3)NC(=O)[C@H](Cc3ccc(-c4ccccc4)cc3)NC(=O)[C@H](Cc3ccc(OCC(=O)O)cc3)NC2=O)c1 [Example 1365] ({CH2CO}-TY(Carboxymethyl)D[Phe(3-Me)]Y(Carboxymethyl)[Bip]Y(Carboxymethyl)[NMeA][dL]N[Cha]VTC[Orn][AEEA][Aun]-OH; thioether N-14)
4 | 0.128 | Cc1cccc(C[C@@H]2NC(=O)[C@H](CC(=O)O)NC(=O)[C@H](Cc3ccc(OCC(=O)O)cc3)NC(=O)[C@H]([C@@H](C)O)NC(=O)CSC[C@@H](C(=O)N[C@@H](CCCN)C(=O)NCCOCCOCC(=O)NCCCCCCCCCCC(=O)O)NC(=O)[C@H](CCC(=O)O)NC(=O)[C@H](C(C)C)NC(=O)[C@H](CC3CCCCC3)NC(=O)[C@H](CC(N)=O)NC(=O)[C@@H](CC(C)C)NC(=O)[C@H](C)N(C)C(=O)[C@H](Cc3ccc(OCC(=O)O)cc3)NC(=O)[C@H](Cc3ccc(-c4ccccc4)cc3)NC(=O)[C@H](Cc3ccc(OCC(=O)O)cc3)NC2=O)c1 [Example 1366] ({CH2CO}-TY(Carboxymethyl)D[Phe(3-Me)]Y(Carboxymethyl)[Bip]Y(Carboxymethyl)[NMeA][dL]N[Cha]VEC[Orn][AEEA][Aun]-OH; thioether N-14)
5 | 0.0556 | Cc1cccc(C[C@@H]2NC(=O)[C@H](CC(=O)O)NC(=O)[C@H](Cc3ccc(OCC(=O)O)cc3)NC(=O)[C@H]([C@@H](C)O)NC(=O)CSC[C@@H](C(=O)N[C@@H](CCCN)C(=O)NCCOCCOCC(=O)NCCCCCCCCCCC(=O)O)NC(=O)[C@H](CO)NC(=O)[C@H](C(C)C)NC(=O)[C@H](CC3CCCCC3)NC(=O)[C@H](CC(N)=O)NC(=O)[C@@H](CC(C)C)NC(=O)[C@H](C)N(C)C(=O)[C@H](Cc3ccc(OCC(=O)O)cc3)NC(=O)[C@H](Cc3ccc(-c4ccccc4)cc3)NC(=O)[C@H](Cc3ccc(OCC(=O)O)cc3)NC2=O)c1 [Example 1367] ({CH2CO}-TY(Carboxymethyl)D[Phe(3-Me)]Y(Carboxymethyl)[Bip]Y(Carboxymethyl)[NMeA][dL]N[Cha]VSC[Orn][AEEA][Aun]-OH; thioether N-14)
6 | 0.0181 | Cc1cccc(C[C@@H]2NC(=O)[C@H](CC(=O)O)NC(=O)[C@H](Cc3ccc(OCC(=O)O)cc3)NC(=O)[C@H]([C@@H](C)O)NC(=O)CSC[C@@H](C(=O)N[C@@H](CCN)C(=O)NCCOCCOCC(=O)NCCCCCCCCCCC(=O)O)NC(=O)[C@H](CO)NC(=O)[C@H](C(C)C)NC(=O)[C@H](CC3CCCCC3)NC(=O)[C@H](CCN)NC(=O)[C@@H](CC(C)C)NC(=O)[C@H](C)N(C)C(=O)[C@H](Cc3ccc(OCC(=O)O)cc3)NC(=O)[C@H](Cc3ccc(-c4ccccc4)cc3)NC(=O)[C@H](Cc3ccc(OCC(=O)O)cc3)NC2=O)c1 [Example 1368] ({CH2CO}-TY(Carboxymethyl)D[Phe(3-Me)]Y(Carboxymethyl)[Bip]Y(Carboxymethyl)[NMeA][dL][Dab][Cha]VSC[Dab][AEEA][Aun]-OH; thioether N-14)
7 | 0.012 | Cc1cccc(C[C@@H]2NC(=O)[C@H](CC(=O)O)NC(=O)[C@H](Cc3ccc(OCC(=O)O)cc3)NC(=O)[C@H]([C@@H](C)O)NC(=O)CSC[C@@H](C(=O)N[C@@H](CCN)C(=O)NCCOCCOCC(=O)NCCCCCCCCCCC(=O)O)NC(=O)[C@H](CCC(=O)O)NC(=O)[C@H](C(C)C)NC(=O)[C@H](CC3CCCCC3)NC(=O)[C@H](CCN)NC(=O)[C@@H](CC(C)C)NC(=O)[C@H](C)N(C)C(=O)[C@H](Cc3ccc(OCC(=O)O)cc3)NC(=O)[C@H](Cc3ccc(-c4ccccc4)cc3)NC(=O)[C@H](Cc3ccc(OCC(=O)O)cc3)NC2=O)c1 [Example 1369] ({CH2CO}-TY(Carboxymethyl)D[Phe(3-Me)]Y(Carboxymethyl)[Bip]Y(Carboxymethyl)[NMeA][dL][Dab][Cha]VEC[Dab][AEEA][Aun]-OH; thioether N-14)
8 | 0.0139 | Cc1cccc(C[C@@H]2NC(=O)[C@H](CC(=O)O)NC(=O)[C@H](Cc3ccc(OCC(=O)O)cc3)NC(=O)[C@H]([C@@H](C)O)NC(=O)CSC[C@@H](C(=O)N[C@@H](CCN)C(=O)NCCOCCOCC(=O)NCCCCCCCCCCC(=O)O)NC(=O)[C@H](CC(N)=O)NC(=O)[C@H](C(C)C)NC(=O)[C@H](CC3CCCCC3)NC(=O)[C@H](CCN)NC(=O)[C@@H](CC(C)C)NC(=O)[C@H](C)N(C)C(=O)[C@H](Cc3ccc(OCC(=O)O)cc3)NC(=O)[C@H](Cc3ccc(-c4ccccc4)cc3)NC(=O)[C@H](Cc3ccc(OCC(=O)O)cc3)NC2=O)c1 [Example 1370] ({CH2CO}-TY(Carboxymethyl)D[Phe(3-Me)]Y(Carboxymethyl)[Bip]Y(Carboxymethyl)[NMeA][dL][Dab][Cha]VNC[Dab][AEEA][Aun]-OH; thioether N-14)
9 | 0.0275 | Cc1cccc(C[C@@H]2NC(=O)[C@H](CC(=O)O)NC(=O)[C@H](Cc3ccc(OCC(=O)O)cc3)NC(=O)[C@H]([C@@H](C)O)NC(=O)CSC[C@@H](C(=O)N[C@@H](CCCN)C(=O)NCCOCCOCC(=O)NCCCCCCCCCCC(=O)O)NC(=O)[C@H]([C@@H](C)O)NC(=O)[C@H](C(C)C)NC(=O)[C@H](CC3CCCCC3)NC(=O)[C@H](CCN)NC(=O)[C@@H](CC(C)C)NC(=O)[C@H](C)N(C)C(=O)[C@H](Cc3ccc(OCC(=O)O)cc3)NC(=O)[C@H](Cc3ccc(-c4ccccc4)cc3)NC(=O)[C@H](Cc3ccc(OCC(=O)O)cc3)NC2=O)c1 [Example 1371] ({CH2CO}-TY(Carboxymethyl)D[Phe(3-Me)]Y(Carboxymethyl)[Bip]Y(Carboxymethyl)[NMeA][dL][Dab][Cha]VTC[Orn][AEEA][Aun]-OH; thioether N-14)
10 | 0.028 | Cc1cccc(C[C@@H]2NC(=O)[C@H](CC(=O)O)NC(=O)[C@H](Cc3ccc(OCC(=O)O)cc3)NC(=O)[C@H]([C@@H](C)O)NC(=O)CSC[C@@H](C(=O)N[C@@H](CCCN)C(=O)NCCOCCOCC(=O)NCCCCCCCCCCC(=O)O)NC(=O)[C@H](CO)NC(=O)[C@H](C(C)C)NC(=O)[C@H](CC3CCCCC3)NC(=O)[C@H](CCN)NC(=O)[C@@H](CC(C)C)NC(=O)[C@H](C)N(C)C(=O)[C@H](Cc3ccc(OCC(=O)O)cc3)NC(=O)[C@H](Cc3ccc(-c4ccccc4)cc3)NC(=O)[C@H](Cc3ccc(OCC(=O)O)cc3)NC2=O)c1 [Example 1372] ({CH2CO}-TY(Carboxymethyl)D[Phe(3-Me)]Y(Carboxymethyl)[Bip]Y(Carboxymethyl)[NMeA][dL][Dab][Cha]VSC[Orn][AEEA][Aun]-OH; thioether N-14)
11 | 0.0317 | Cc1cccc(C[C@@H]2NC(=O)[C@H](CC(=O)O)NC(=O)[C@H](Cc3ccc(OCC(=O)O)cc3)NC(=O)[C@H]([C@@H](C)O)NC(=O)CSC[C@@H](C(=O)N[C@@H](CCCN)C(=O)NCCOCCOCC(=O)NCCCCCCCCCCC(=O)O)NC(=O)[C@H](CCC(=O)O)NC(=O)[C@H](C(C)C)NC(=O)[C@H](CC3CCCCC3)NC(=O)[C@H](CCN)NC(=O)[C@@H](CC(C)C)NC(=O)[C@H](C)N(C)C(=O)[C@H](Cc3ccc(OCC(=O)O)cc3)NC(=O)[C@H](Cc3ccc(-c4ccccc4)cc3)NC(=O)[C@H](Cc3ccc(OCC(=O)O)cc3)NC2=O)c1 [Example 1373] ({CH2CO}-TY(Carboxymethyl)D[Phe(3-Me)]Y(Carboxymethyl)[Bip]Y(Carboxymethyl)[NMeA][dL][Dab][Cha]VEC[Orn][AEEA][Aun]-OH; thioether N-14)
12 | 0.0174 | Cc1cccc(C[C@@H]2NC(=O)[C@H](CC(=O)O)NC(=O)[C@H](Cc3ccc(OCC(=O)O)cc3)NC(=O)[C@H]([C@@H](C)O)NC(=O)CSC[C@@H](C(=O)N[C@@H](CCCN)C(=O)NCCOCCOCC(=O)NCCCCCCCCCCC(=O)O)NC(=O)[C@H](CC(N)=O)NC(=O)[C@H](C(C)C)NC(=O)[C@H](CC3CCCCC3)NC(=O)[C@H](CCN)NC(=O)[C@@H](CC(C)C)NC(=O)[C@H](C)N(C)C(=O)[C@H](Cc3ccc(OCC(=O)O)cc3)NC(=O)[C@H](Cc3ccc(-c4ccccc4)cc3)NC(=O)[C@H](Cc3ccc(OCC(=O)O)cc3)NC2=O)c1 [Example 1374] ({CH2CO}-TY(Carboxymethyl)D[Phe(3-Me)]Y(Carboxymethyl)[Bip]Y(Carboxymethyl)[NMeA][dL][Dab][Cha]VNC[Orn][AEEA][Aun]-OH; thioether N-14)
